Measured values: PMC12155096 (International Journal of Molecular Sciences, 2025)
Like-named read-outs stand apart in the source and are kept apart here.

Key:
human CYP2C9 [1] = target: T1, human CYP2C9 (Homo sapiens, UniProt P11712); assay: biochemical
CYP3A4 [2] = target: T2, CYP3A4 (Homo sapiens, UniProt P08684); assay: biochemical
human CYP2D6 [3] = target: T3, human CYP2D6 (Homo sapiens, UniProt P10635); assay: biochemical; conditions: CYP2D6 AC50 (half-maximal activity concentration)
human CYP2C19 [4] = target: T4, human CYP2C19 (Homo sapiens, UniProt P33261); conditions: for CYP2C19 Efficacy (in parenthesis): human
T4 sequence (P33261 whole entry): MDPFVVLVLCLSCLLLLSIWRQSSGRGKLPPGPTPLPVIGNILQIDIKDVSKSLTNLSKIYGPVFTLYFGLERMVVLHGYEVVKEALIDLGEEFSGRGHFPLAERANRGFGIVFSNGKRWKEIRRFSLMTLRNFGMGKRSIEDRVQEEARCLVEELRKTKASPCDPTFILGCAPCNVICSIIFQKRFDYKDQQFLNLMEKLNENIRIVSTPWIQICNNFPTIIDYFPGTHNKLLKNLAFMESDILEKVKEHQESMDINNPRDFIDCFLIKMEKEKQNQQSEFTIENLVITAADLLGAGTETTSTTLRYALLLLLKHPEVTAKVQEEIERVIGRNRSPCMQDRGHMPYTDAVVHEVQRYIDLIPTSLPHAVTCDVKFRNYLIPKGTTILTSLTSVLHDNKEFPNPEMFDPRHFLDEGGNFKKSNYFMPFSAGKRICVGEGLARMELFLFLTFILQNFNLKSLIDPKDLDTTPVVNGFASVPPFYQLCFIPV

human CYP1A2 [5] = target: T5, human CYP1A2 (Homo sapiens, UniProt P05177); conditions: for CYP1A2 Efficacy (in parenthesis): human
T5 sequence (P05177 1-516): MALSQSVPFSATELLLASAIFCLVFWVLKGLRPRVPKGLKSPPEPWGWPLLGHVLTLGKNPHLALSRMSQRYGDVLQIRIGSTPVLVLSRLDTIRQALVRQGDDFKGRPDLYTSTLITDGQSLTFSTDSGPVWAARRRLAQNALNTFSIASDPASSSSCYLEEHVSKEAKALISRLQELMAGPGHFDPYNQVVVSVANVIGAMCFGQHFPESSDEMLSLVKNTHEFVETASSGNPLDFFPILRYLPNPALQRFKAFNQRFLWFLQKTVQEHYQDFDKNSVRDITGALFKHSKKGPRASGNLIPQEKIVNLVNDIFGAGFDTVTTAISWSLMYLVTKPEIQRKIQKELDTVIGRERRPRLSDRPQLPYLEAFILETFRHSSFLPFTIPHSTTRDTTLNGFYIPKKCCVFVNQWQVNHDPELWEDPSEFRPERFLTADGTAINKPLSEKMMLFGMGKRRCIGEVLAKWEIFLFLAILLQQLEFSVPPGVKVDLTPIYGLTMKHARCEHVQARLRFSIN

[6] = target: Photinus pyralis (firefly) luciferase (Photinus pyralis, UniProt P08659); assay: biochemical; type: biochemical
Photinus pyralis (firefly) luciferase, sequence (P08659 whole entry): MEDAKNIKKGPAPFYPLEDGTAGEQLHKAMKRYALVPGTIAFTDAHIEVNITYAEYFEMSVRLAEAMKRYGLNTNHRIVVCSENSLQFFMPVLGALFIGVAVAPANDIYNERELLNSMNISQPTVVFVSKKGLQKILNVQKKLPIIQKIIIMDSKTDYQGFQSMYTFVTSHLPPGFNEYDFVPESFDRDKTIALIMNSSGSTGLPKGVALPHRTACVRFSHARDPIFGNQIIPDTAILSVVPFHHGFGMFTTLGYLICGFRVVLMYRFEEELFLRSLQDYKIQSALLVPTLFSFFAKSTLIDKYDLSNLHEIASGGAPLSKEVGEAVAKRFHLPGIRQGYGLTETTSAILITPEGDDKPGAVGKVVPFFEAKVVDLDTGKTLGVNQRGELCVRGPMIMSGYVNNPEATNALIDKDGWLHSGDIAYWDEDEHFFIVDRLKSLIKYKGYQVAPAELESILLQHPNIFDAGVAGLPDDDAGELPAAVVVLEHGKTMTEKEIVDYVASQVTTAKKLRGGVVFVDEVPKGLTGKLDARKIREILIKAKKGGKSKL

CYP3A4 [7] = target: T2, CYP3A4
human CYP2C19 [8] = target: T4, human CYP2C19; assay: biochemical
human CYP1A2 [9] = target: T5, human CYP1A2; assay: biochemical
human CYP2D6 [10] = target: T3, human CYP2D6
human CYP2C9 [11] = target: T1, human CYP2C9; conditions: for CYP2C9 Efficacy (in parenthesis): human
[12] = CYP2C9 AC50 (half-maximal activity concentration)
[13] = CYP3A4 AC50 (half-maximal activity concentration)
[14] = CYP2C9 IC50 (half-maximal inhibitory concentration)
[15] = CYP2C19 IC50 (half-maximal inhibitory concentration)
[16] = CYP3A4 IC50 (half-maximal inhibitory concentration)
[17] = CYP1A2 IC50 (half-maximal inhibitory concentration)
[18] = CYP2C19 AC50 (half-maximal activity concentration)
[19] = CYP1A2 AC50 (half-maximal activity concentration)

T3 sequence (P10635 whole entry): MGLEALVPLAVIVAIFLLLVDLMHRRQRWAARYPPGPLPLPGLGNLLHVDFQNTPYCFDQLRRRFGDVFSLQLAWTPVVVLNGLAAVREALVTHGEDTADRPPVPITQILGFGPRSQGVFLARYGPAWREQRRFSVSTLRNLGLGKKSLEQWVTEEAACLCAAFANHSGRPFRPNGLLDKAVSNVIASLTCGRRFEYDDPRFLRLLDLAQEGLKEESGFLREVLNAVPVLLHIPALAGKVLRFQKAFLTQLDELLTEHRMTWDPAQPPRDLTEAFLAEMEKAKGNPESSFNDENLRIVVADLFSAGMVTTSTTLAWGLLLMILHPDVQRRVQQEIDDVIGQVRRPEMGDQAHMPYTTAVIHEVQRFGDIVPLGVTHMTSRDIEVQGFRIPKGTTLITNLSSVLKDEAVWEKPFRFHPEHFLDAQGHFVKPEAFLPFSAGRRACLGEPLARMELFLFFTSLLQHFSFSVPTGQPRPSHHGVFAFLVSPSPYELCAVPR
T1 sequence (P11712 whole entry): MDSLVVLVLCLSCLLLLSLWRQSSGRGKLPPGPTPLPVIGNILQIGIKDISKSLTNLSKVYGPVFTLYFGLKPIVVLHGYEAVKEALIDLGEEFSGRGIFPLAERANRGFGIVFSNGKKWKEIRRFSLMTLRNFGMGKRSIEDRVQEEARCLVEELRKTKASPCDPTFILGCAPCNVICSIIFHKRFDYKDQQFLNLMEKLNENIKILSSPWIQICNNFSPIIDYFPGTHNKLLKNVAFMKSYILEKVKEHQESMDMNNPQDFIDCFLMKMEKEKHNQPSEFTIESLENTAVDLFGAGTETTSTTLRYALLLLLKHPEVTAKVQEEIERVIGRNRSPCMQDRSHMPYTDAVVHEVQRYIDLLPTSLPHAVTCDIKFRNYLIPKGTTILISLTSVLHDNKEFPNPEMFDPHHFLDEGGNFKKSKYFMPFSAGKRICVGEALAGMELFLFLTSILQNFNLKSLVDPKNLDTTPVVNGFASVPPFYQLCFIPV
T2 sequence (P08684 whole entry): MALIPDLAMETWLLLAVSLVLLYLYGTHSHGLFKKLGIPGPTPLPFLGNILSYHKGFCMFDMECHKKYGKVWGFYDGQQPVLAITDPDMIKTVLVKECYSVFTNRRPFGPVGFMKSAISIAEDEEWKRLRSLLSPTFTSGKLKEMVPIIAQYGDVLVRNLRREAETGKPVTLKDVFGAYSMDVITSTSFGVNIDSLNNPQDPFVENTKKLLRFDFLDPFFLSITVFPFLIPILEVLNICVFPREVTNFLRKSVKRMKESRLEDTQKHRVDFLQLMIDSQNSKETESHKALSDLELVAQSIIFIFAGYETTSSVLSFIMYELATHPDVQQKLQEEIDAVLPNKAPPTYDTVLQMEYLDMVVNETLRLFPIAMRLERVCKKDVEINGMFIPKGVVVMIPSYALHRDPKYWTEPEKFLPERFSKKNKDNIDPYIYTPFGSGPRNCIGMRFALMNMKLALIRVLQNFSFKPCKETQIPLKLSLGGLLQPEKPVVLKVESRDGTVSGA

| Structure (SMILES) | AC50 (human CYP2C9 [1]; [12]) [µM] | AC50 (CYP3A4 [2]; [13]) [µM] | IC50 (human CYP2C9 [1]; [14]) [µM] | CYP3A4 Efficacy (in parenthesis) (CYP3A4 [7]) | IC50 (human CYP2C19 [8]; [15]) [µM] | IC50 (CYP3A4 [2]; [16]) [µM] | CYP2C19 Efficacy (in parenthesis) (human CYP2C19 [4]) | IC50 (human CYP1A2 [9]; [17]) [µM] | CYP2D6 IC50 (half-maximal inhibitory concentration) (human CYP2D6 [10]) | AC50 (human CYP2C19 [8]; [18]) [µM] | Luciferase IC50 (half-maximal inhibitory concentration) [6] | other results |
| --- | --- | --- | --- | --- | --- | --- | --- | --- | --- | --- | --- | --- |
| O=C(Cl)c1cccc(C(=O)Cl)c1 [1,3-Benzenedicarbonyl dichloride] | 68.7 | 26.8 | – | – | – | – | – | – | – | – | – | AC50 (human CYP2D6 [3]): 24.9 µM; CYP2C19 AC50 (half-maximal activity concentration) (human CYP2C19 [4]): Inactive; CYP1A2 AC50 (half-maximal activity concentration) (human CYP1A2 [5]): Inactive |
| Oc1ccc2ccc3cccc4ccc1c2c34 [1-Hydroxypyrene] | – | – | 35.6 | 27.72 ± 10.43 (-84 ± 7) % | 15.7 | 27.7 | 15.71 ± 4.38 (-129 ± 16) % | 0.83 | Inactive | – | – | IC50 [6]: 68.7 µM; CYP1A2 Efficacy (in parenthesis) (human CYP1A2 [5]): 0.83 ± 0.11 (-98 ± 1) %; CYP2C9 Efficacy (in parenthesis) (human CYP2C9 [11]): 35.57 ± 0 (-80 ± 9) % |
| Brc1ccc(Oc2ccc(Br)cc2Br)c(Br)c1 [2,2'4,4'-Tetrabromodiphenyl ether] | 12.7 | 13 | – | 13.01 ± 6.86 (68 ± 8) % | 0.55 | – | 0.55 ± 0.43 (-128 ± 5) % | 16.8 | Inactive | 0.55 | – | IC50 [6]: 44 µM; CYP3A4 IC50 (half-maximal inhibitory concentration) (CYP3A4 [7]): 13.01 ± 6.86 (68 ± 8) µM; AC50 (human CYP1A2 [9]; [19]): 16.8 µM; CYP1A2 Efficacy (in parenthesis) (human CYP1A2 [5]): 16.84 ± 7.26 (-69 ± 6) % |
| Brc1c2ccccc2cc2ccccc12 [9-Bromoanthracene] | – | – | 34.6 | 25.01 ± 9.91 (-59 ± 38) % | 26.3 | 25 | 26.26 ± 8.46 (-125 ± 5) % | 0.51 | Inactive | – | – | IC50 [6]: 42.3 µM; CYP1A2 Efficacy (in parenthesis) (human CYP1A2 [5]): 0.51 ± 0.11 (-99 ± 4) %; CYP2C9 Efficacy (in parenthesis) (human CYP2C9 [11]): 34.62 ± 2.26 (-73 ± 9) % |
| O=C1c2ccccc2Cc2ccccc21 [Anthrone] | – | – | 12.6 | 26.66 ± 4.8 (-63 ± 11) % | 15.7 | 26.7 | 15.72 ± 5.91 (-83 ± 4) % | 0.44 | Inactive | – | Inactive | CYP1A2 Efficacy (in parenthesis) (human CYP1A2 [5]): 0.44 ± 0.07 (-99 ± 1) %; CYP2C9 Efficacy (in parenthesis) (human CYP2C9 [11]): 12.58 ± 3.51 (-54 ± 8) % |
| O=C(CCCN1CCN(c2ccccn2)CC1)c1ccc(F)cc1 [Azaperone] | 5.25 | 5.97 | – | – | – | – | – | – | – | 32.7 | – | AC50 (human CYP2D6 [3]): 12.4 µM; CYP1A2 AC50 (half-maximal activity concentration) (human CYP1A2 [5]): Inactive |
| O=c1[nH]c2ccc([S+]([O-])CCN3CCC(Cc4ccc(F)cc4)CC3)cc2o1 (centres unmarked) [Besonprodil] | 6.44 | 21.5 | – | – | – | – | – | – | – | 50.9 | – | AC50 (human CYP2D6 [3]): 33 µM; CYP1A2 AC50 (half-maximal activity concentration) (human CYP1A2 [5]): Inactive |
| CC1(C)C(C=C(Cl)Cl)C1C(=O)OC(C#N)c1ccc(F)c(Oc2ccccc2)c1 (centres unmarked) [Cyfluthrin] | 3.92 | 4.01 | – | – | – | – | – | – | – | 10.4 | – | AC50 (human CYP2D6 [3]): 22.2 µM; CYP1A2 AC50 (half-maximal activity concentration) (human CYP1A2 [5]): Inactive |
| CCOP(=S)(OCC)Oc1ccc(Cl)cc1Cl [Dichlofenthion] | – | – | 3.56 | 2.22 ± 0.62 (-82 ± 5) % | 0.44 | 2.22 | 0.44 ± 0.11 (-121 ± 28) % | 3.07 | Inactive | – | Inactive | CYP1A2 Efficacy (in parenthesis) (human CYP1A2 [5]): 3.07 ± 0.42 (-101 ± 5) %; CYP2C9 Efficacy (in parenthesis) (human CYP2C9 [11]): 3.56 ± 0 (-100 ± 3) % |
| CC(C)(C(=O)c1cccnc1)c1cccnc1 [Metyrapone] | – | – | – | 0.57 ± 0.16 (-62 ± 5) % | – | 0.57 | – | – | Inactive | – | Inactive | CYP2C19 IC50 (half-maximal inhibitory concentration) (human CYP2C19 [4]): Inactive; CYP1A2 IC50 (half-maximal inhibitory concentration) (human CYP1A2 [5]): Inactive; CYP2C9 IC50 (half-maximal inhibitory concentration) (human CYP2C9 [11]): Inactive |
| CCN(CC)C(=O)C(C)Oc1cccc2ccccc12 (centres unmarked) [Napropamide] | – | – | 29.9 | – | 0.66 | 7.56 | – | 25 | Inactive | – | Inactive | – |
| CC1(C)C(C=C(Cl)Cl)C1C(=O)OCc1cccc(Oc2ccccc2)c1 (centres unmarked) [Permethrin] | 11.2 | 10.9 | – | – | – | – | – | – | – | 5.91 | – | AC50 (human CYP2D6 [3]): 27.5 µM |
| Oc1ccc2[nH]cc(CCCCN3CC=C(c4ccccc4)CC3)c2c1 [Roxindole] | 21.2 | 1.91 | – | – | – | – | – | – | – | – | – | Luciferase IC50 [6]: Inactive; IC50 (human CYP2C9 [1]; CYP2C9 IC50): 21.2 µM; CYP3A4 IC50 (CYP3A4 [7]): 1.91 ± 0.48 (802 ± 30) µM; CYP2C19 IC50 (human CYP2C19 [4]): Inactive; AC50 (human CYP1A2 [9]; [19]): 22.4 µM; IC50 (human CYP1A2 [9]; CYP1A2 IC50): 22.4 µM |
| O[Si](c1ccccc1)(c1ccccc1)c1ccccc1 [Triphenylsilanol] | 0.53 | 13.7 | 0.53 | – | 0.57 | – | – | – | Inactive | 0.57 | Inactive | CYP3A4 IC50 (half-maximal inhibitory concentration) (CYP3A4 [7]): 13.71 ± 1.89 (172 ± 26) µM; CYP1A2 AC50 (half-maximal activity concentration) (human CYP1A2 [5]): Inconclusive inhibitor; CYP1A2 IC50 (half-maximal inhibitory concentration) (human CYP1A2 [5]): Inactive |
| COC(=O)C1=C(C)NC(C)=C(C(=O)OCCc2ccc(N3CCN(C(c4ccccc4)c4ccccc4)CC3)cc2)C1c1cccc([N+](=O)[O-])c1 (centres unmarked) [Watanidipine] | – | – | – | – | – | – | – | – | Inactive | – | Inactive | IC50 (human CYP2C9 [1]): 0.49 µM; IC50 (human CYP2C19 [8]): 8.39 µM; IC50 (CYP3A4 [2]): 2.38 µM; IC50 (human CYP1A2 [9]): 14.6 µM |
| O=c1c2ccccc2oc2ccccc12 [Xanthone] | – | – | – | – | – | – | – | – | Inactive | – | – | IC50 [6]: 23.6 µM; AC50 (human CYP2C9 [1]): 35.7 µM; IC50 (human CYP2C9 [1]): 35.7 µM; AC50 (human CYP2C19 [8]): 29.7 µM; IC50 (human CYP2C19 [8]): 29.7 µM; AC50 (CYP3A4 [2]): 14.5 µM; AC50 (human CYP1A2 [9]): 0.5 µM; IC50 (human CYP1A2 [9]): 0.5 µM |
| Clc1ccc(C(c2ccccc2Cl)C(Cl)(Cl)Cl)cc1 (centres unmarked) [o,p'-DDT] | 10.9 | 11.6 | 10.9 | 11.59 ± 3.23 (99 ± 19) % | 0.35 | – | 0.35 ± 0.15 (-129 ± 3) % | – | Inactive | 0.35 | Inactive | CYP3A4 IC50 (half-maximal inhibitory concentration) (CYP3A4 [7]): 11.59 ± 3.23 (99 ± 19) µM; CYP1A2 IC50 (half-maximal inhibitory concentration) (human CYP1A2 [5]): Inactive; CYP2C9 Efficacy (in parenthesis) (human CYP2C9 [11]): 10.87 ± 3.7 (-95 ± 6) % |
